In publication PMC6629894, “Ruthenium Complexes Containing Heterocyclic Thioamidates Trigger Caspase-Mediated Apoptosis Through MAPK Signaling in Human Hepatocellular Carcinoma Cells” (Frontiers in Oncology, 2019):

Assays:
human topoisomerase IB = test system: human topoisomerase IB; design: method as in PMID 26795676; details: ref [18], [19]; cited from earlier work
[1] = test system: MCF-7 (human breast carcinoma); assay: Alamar blue cytotoxicity assay, 72 h; assay type: cell-based
Text: (§1) The cell lines HepG2 (human hepatocellular carcinoma), HL-60 (human promyelocytic leukemia), K-562 (human chronic myelogenous leukemia), B16-F10 (mouse melanoma), MCF-7 (human breast carcinoma), HCT116 (human colon carcinoma), HSC-3 (human oral squamous cell carcinoma), SCC-4 (human oral squamous cell carcinoma), MRC-5 (human lung fibroblast), WT SV40 MEF (wild-type immortalized mouse embryonic fibroblast), and BAD KO SV40 MEF (BAD gene knockout immortalized mouse embryonic fibroblasts) were obtained from the American Type Culture Collection (ATCC, Manassas, VA, USA). Cells were cultured in RPMI 1640 medium (Gibco-BRL, Gaithersburg, MD, USA) with 10% fetal bovine serum (Life, Carlsbad, CA, USA), 2 mM L-glutamine (Vetec Química Fina, Duque de Caxias, RJ, Brazil) and 50 μg/mL gentamycin (Life). For all experiments, adherent cells were collected by treatment with 0.25% trypsin-EDTA solution (Gibco-BRL). All cell lines were cultured in flasks at 37°C in 5% CO2 and were subcultured every 3–4 days to maintain exponential growth. All cell lines were tested for mycoplasma using a mycoplasma staining kit (Sigma-Aldrich Co.) to validate that the cells that were used were free from contamination.
(§2) Cytotoxicity was measured colorimetrically using an Alamar blue method that was performed as previously described ([20], [21]). Cells were seeded in 96-well plates for all experiments (7 × 10^4 cells/mL for adherent cells or 3 × 10^5 cells/mL for suspension cells in 100 μL of medium) and incubated overnight at 37°C with 5% CO2 to allow for adherence. The complexes were dissolved in 0.5% dimethyl sulfoxide (DMSO, Vetec Química Fina) at eight different concentrations from 0.19 to 25 μg/mL and were added to each well and incubated for 72 h. The negative control was treated with the vehicle (0.5% DMSO) that was used to solubilize and dilute the complexes. […] Four (for cell lines) or 24 h (for PBMCs) before the end of incubation, 20 μL of a stock solution (0.312 mg/mL) of resazurin (Sigma-Aldrich Co.) was added to each well. Absorbance was measured at 570 and 600 nm using a SpectraMax 190 Microplate Reader (Molecular Devices, Sunnyvale, CA, USA).

[2] = test system: HL-60 (human promyelocytic leukemia); assay: Alamar blue cytotoxicity assay, 72 h; assay type: cell-based
Text: as §1, §2

B16-F10 (mouse melanoma) = assay: Alamar blue cytotoxicity assay, 72 h; assay type: cell-based; details: for IC50: read-out: IC50 and 95% CI, B16-F10, 72 h
Text: as §1, §2

[3] = test system: HCT116 (human colon carcinoma); assay: Alamar blue cytotoxicity assay, 72 h; assay type: cell-based; details: PBMCs vs HCT116
Text: as §1, §2

[4] = test system: SCC-4 (human oral squamous cell carcinoma); assay: Alamar blue cytotoxicity assay, 72 h; assay type: cell-based
Text: as §1, §2

[5] = test system: HSC-3 (human oral squamous cell carcinoma); assay: Alamar blue cytotoxicity assay, 72 h; assay type: cell-based; details: PBMCs vs HSC-3
Text: as §1, §2

[6] = test system: WT SV40 MEF (wild-type immortalized mouse embryonic fibroblast); assay: Alamar blue cytotoxicity assay, 72 h; assay type: cell-based; details: read-out: IC50 and 95% CI
[7] = test system: BAD KO SV40 MEF (BAD gene knockout immortalized mouse embryonic fibroblasts); assay: Alamar blue cytotoxicity assay, 72 h; assay type: cell-based; details: read-out: IC50 and 95% CI
advanced HCC = test system: advanced HCC; design: method as in PMID 18650514, PMID 28604110, PMID 29533189; details: ref [2]–[4]; cited from earlier work

SMILES: F[P-](F)(F)(F)(F)F.Nc1cc(N)nc([S-])n1.[Ru+2].c1ccc(-c2ccccn2)nc1.c1ccc(P(CCCCP(c2ccccc2)c2ccccc2)c2ccccc2)cc1 [Complex 3, [Ru(dmp)(bipy)(dppb)]PF6]
- supercoiled DNA relaxation mediated by human topoisomerase IB (human topoisomerase IB): inhibit the supercoiled DNA relaxation
- Selectivity index (SI = IC50 [noncancerous cells]/IC50 [cancer cells]) ([1]; PBMCs vs MCF-7): 1.5
- IC50 ([1]; read-out: IC50 and 95% CI, MCF-7, 72 h): 8.7 µM
- Selectivity index (SI = IC50 [noncancerous cells]/IC50 [cancer cells]) ([2]; MRC-5 vs HL-60): 1.1
- Selectivity index (SI = IC50 [noncancerous cells]/IC50 [cancer cells]) ([2]; PBMCs vs HL-60): 2.6
- IC50 (B16-F10 (mouse melanoma)): 3.9 µM
- Selectivity index (SI = IC50 [noncancerous cells]/IC50 [cancer cells]) [3]: 2.2
- Selectivity index (SI = IC50 [noncancerous cells]/IC50 [cancer cells]) ([4]; MRC-5 vs SCC-4): 1.1
- Selectivity index (SI = IC50 [noncancerous cells]/IC50 [cancer cells]) [5]: 2.5

SMILES: F[P-](F)(F)(F)(F)F.O=C(O)c1ccc([S-])nc1.[Ru+2].c1ccc(-c2ccccn2)nc1.c1ccc(P(CCCCP(c2ccccc2)c2ccccc2)c2ccccc2)cc1 [Complex 4, [Ru(mpca)(bipy)(dppb)]PF6]
- supercoiled DNA relaxation mediated by human topoisomerase IB (human topoisomerase IB): inhibit the supercoiled DNA relaxation
- Selectivity index (SI = IC50 [noncancerous cells]/IC50 [cancer cells]) ([2]; PBMCs vs HL-60): 2.6
- IC50 ([2]; read-out: IC50 and 95% CI, HL-60, 72 h): 8.7 µM
- Selectivity index (SI = IC50 [noncancerous cells]/IC50 [cancer cells]) (B16-F10 (mouse melanoma); PBMCs vs B16-F10): 1.3
- IC50 (B16-F10 (mouse melanoma)): 17.7 µM

SMILES: N.N.[Cl][Pt][Cl] [cisplatin, reference compound]
- IC50 [6]: 36.9 µM
- IC50 [7]: 47.3 µM

SMILES: O=C1[O][Pt]2([NH][C@@H]3CCCC[C@H]3[NH]2)[O]C1=O [oxaliplatin, reference compound]
- IC50 ([4]; read-out: IC50 and 95% CI, SCC-4, 72 h): 7.7 µM

SMILES: CNC(=O)c1cc(Oc2ccc(NC(=O)Nc3ccc(Cl)c(C(F)(F)F)c3)cc2)ccn1 [sorafenib]
- prolongation of survival (advanced HCC): 3 months
